Assay results published in the NIST ThermoML archive (doi:10.1021/je800110r).

Settings: 293.15 K, Liquid, Vibrating tube method

CCCCCCCCCC [decane]
Settings	mass density [kg/m3]
12325 kPa	739.1
12342 kPa	739.1
12359 kPa	739
12381 kPa	739
12401 kPa	739.1
12417 kPa	739
12437 kPa	739.1
12454 kPa	739
12476 kPa	739.3
12499 kPa	739.2
12516 kPa	739.1
12536 kPa	739.1
12556 kPa	739.1
12576 kPa	739.1
12593 kPa	739.2
12610 kPa	739.3
12633 kPa	739.3
12653 kPa	739.2
12677 kPa	739.2
12703 kPa	739.2
12720 kPa	739.2
12744 kPa	739.3
12759 kPa	739.2
12785 kPa	739.3
12809 kPa	739.3
12827 kPa	739.3
12851 kPa	739.3
12872 kPa	739.5
12896 kPa	739.3
12917 kPa	739.5
12939 kPa	739.5
12957 kPa	739.4
12978 kPa	739.4
12999 kPa	739.5
13018 kPa	739.5
13039 kPa	739.5
13058 kPa	739.5
13080 kPa	739.6
13098 kPa	739.5
13127 kPa	739.6
13152 kPa	739.6
13172 kPa	739.7
13197 kPa	739.5
13216 kPa	739.6
13235 kPa	739.6
13251 kPa	739.7
13274 kPa	739.7
13290 kPa	739.7
13309 kPa	739.7
13329 kPa	739.6
13359 kPa	739.6
13385 kPa	739.8
13408 kPa	739.7
13435 kPa	739.7
13459 kPa	739.8
13479 kPa	739.8
13501 kPa	740
13525 kPa	739.9
13548 kPa	739.8
13569 kPa	740
13586 kPa	739.9
13609 kPa	739.9
13626 kPa	739.9
13644 kPa	739.8
13667 kPa	740
13686 kPa	740
13701 kPa	740
13722 kPa	739.9
13745 kPa	740
13766 kPa	739.9
13784 kPa	739.9
13802 kPa	740
13820 kPa	740
13844 kPa	740
13862 kPa	740.1
13881 kPa	739.9
13903 kPa	740.2
13927 kPa	740.1
13943 kPa	740.1
13967 kPa	740.3
13989 kPa	740.1
14008 kPa	740.2
14024 kPa	740.3
14044 kPa	740.1
14061 kPa	740.2
14081 kPa	740.3
14098 kPa	740.3
14121 kPa	740.2
14139 kPa	740.3
14151 kPa	740.3
14167 kPa	740.2
14181 kPa	740.4
14194 kPa	740.3
14205 kPa	740.2
14220 kPa	740.4
14232 kPa	740.3
14245 kPa	740.4
14257 kPa	740.4
14269 kPa	740.2
14281 kPa	740.3
14297 kPa	740.4
14314 kPa	740.4
14325 kPa	740.4
14339 kPa	740.4
14352 kPa	740.4
14363 kPa	740.4
14376 kPa	740.4
14389 kPa	740.4
14404 kPa	740.4
14418 kPa	740.4
14427 kPa	740.5
14443 kPa	740.4
14458 kPa	740.5
14471 kPa	740.4
14483 kPa	740.6
14500 kPa	740.6
14517 kPa	740.5
14529 kPa	740.4
14542 kPa	740.6
14554 kPa	740.4
14566 kPa	740.6
14580 kPa	740.6
14592 kPa	740.5
14605 kPa	740.5
14617 kPa	740.6
14637 kPa	740.6
14650 kPa	740.7
14664 kPa	740.6
14676 kPa	740.7
14691 kPa	740.6
14706 kPa	740.7
14717 kPa	740.7
14735 kPa	740.6
14753 kPa	740.7
14765 kPa	740.7
14779 kPa	740.7
